Assay: Solubility measurement of saturated solutions by HPLC at room temperature (0 h and 24 h)
Assay type: physicochemical
Settings: buffered water with excipients, pH 4, aqueous with cosolvent or surfactant or cyclodextrin, thermodynamic from solid
Experimental: The vial contents are prepared starting with 2.5 mg of the compound of formula (I). The primary excipient is added followed by any further excipient and then the buffered water to a total volume of 500 μL. All components are mixed in a vortex mixer for ca. 5 minutes. If everything is dissolved an additional 2.5 mg of the compound of formula (I) is added and vortexed again for ca. 5 minutes. This is repeated until a saturated solution (suspension) is obtained.
The solubility in vial 1 is measured immediately as described below.
To measure solubility 400 μl of the suspension are taken and placed in a centrifugation device above a 0.2 μm filter. Centrifugation is performed at 14,000 rpm for 10 minutes and if necessary repeated for additional 10 minutes. The filter is removed from the vial and 100 μL is taken and diluted with 400 μL high-performance liquid chromatography (HPLC) diluent solution (see below) or diluted with 900 μL HPLC diluent solution in the event 5 mg or more of the compound of formula (I) was used. The pH of the solution is measured. A further 100 μL of the vial solution is taken and diluted with 400 μL of HPLC diluent solution or diluted with 900 μL HPLC diluent solution in the event 5 mg or more of the compound of formula (I) was used. The assay of the solution versus control stock solution is measured by HPLC and the solubility is calculated as described below. The HPLC diluent solution is 0.1% trifluoroacetic acid (TFA) in acetonitrile (ACN) and water (1:1 v/v).
All solubility tests are performed at room temperature.
The HPLC method for assessing solubility is performed as follows:
The solubility of the compound of formula (I) is calculated according to the following formula:
[formula] • Solubility=solubility of compound of formula (I) (mg/mL) • A=peak area of the compound of the sample tested • a=value of constant “a” in Linear regression equation y=ax+b • b=value of constant “b” in Linear regression equation y=ax+b • n=dilution time • Formulations for stability assessment are prepared as follows: […]

solubility at 0 h (CBS 30 mM pH 4.0, NaCl 3 mg/mL, SBE-beta-CD 40 mg/mL + Kollidon 12 P188 5 mg/mL, pH exp 4.1): 2590 µg/mL
solubility at 24 h (CBS 30 mM pH 4.0, NaCl 3 mg/mL, SBE-beta-CD 40 mg/mL + Kollidon 12 P188 5 mg/mL, pH exp 4.2): 3710 µg/mL
solubility at 0 h (CBS 30 mM pH 4.0, NaCl 3 mg/mL, SBE-beta-CD 40 mg/mL + Na CMC 5 mg/mL, pH exp 4.1): 1710 µg/mL
solubility at 24 h (CBS 30 mM pH 4.0, NaCl 3 mg/mL, SBE-beta-CD 40 mg/mL + Na CMC 5 mg/mL, pH exp n. a.): 2670 µg/mL
solubility at 0 h (CBS 30 mM pH 4.0, NaCl 3 mg/mL, SBE-beta-CD 40 mg/mL + PEG 400 1 mg/mL, pH exp 4.1): 2480 µg/mL
solubility at 24 h (CBS 30 mM pH 4.0, NaCl 3 mg/mL, SBE-beta-CD 40 mg/mL + PEG 400 1 mg/mL, pH exp 4.2): 3730 µg/mL
solubility at 0 h (CBS 30 mM pH 4.0, NaCl 3 mg/mL, SBE-beta-CD 40 mg/mL + PEG 400 5 mg/mL, pH exp 4.1): 2340 µg/mL
solubility at 24 h (CBS 30 mM pH 4.0, NaCl 3 mg/mL, SBE-beta-CD 40 mg/mL + PEG 400 5 mg/mL, pH exp 4.2): 3750 µg/mL
solubility at 0 h (CBS 30 mM pH 4.0, NaCl 3 mg/mL, SBE-beta-CD 40 mg/mL + PEG 400 10 mg/mL, pH exp 4.1): 2590 µg/mL
solubility at 24 h (CBS 30 mM pH 4.0, NaCl 3 mg/mL, SBE-beta-CD 40 mg/mL + PEG 400 10 mg/mL, pH exp 4.2): 3790 µg/mL
solubility at 0 h (CBS 30 mM pH 4.0, NaCl 3 mg/mL, SBE-beta-CD 40 mg/mL + PEG 400 20 mg/mL, pH exp 4.1): 2570 µg/mL
solubility at 24 h (CBS 30 mM pH 4.0, NaCl 3 mg/mL, SBE-beta-CD 40 mg/mL + PEG 400 20 mg/mL, pH exp 4.2): 3810 µg/mL
solubility at 0 h (CBS 30 mM pH 4.0, NaCl 3 mg/mL, SBE-beta-CD 40 mg/mL + PEG 400 30 mg/mL, pH exp 4.1): 2670 µg/mL
solubility at 24 h (CBS 30 mM pH 4.0, NaCl 3 mg/mL, SBE-beta-CD 40 mg/mL + PEG 400 30 mg/mL, pH exp 4.2): 3860 µg/mL
solubility at 0 h (CBS 30 mM pH 4.0, NaCl 3 mg/mL, SBE-beta-CD 40 mg/mL + PEG 4000 5 mg/mL, pH exp 4.1): 2420 µg/mL
solubility at 24 h (CBS 30 mM pH 4.0, NaCl 3 mg/mL, SBE-beta-CD 40 mg/mL + PEG 4000 5 mg/mL, pH exp 4.2): 3670 µg/mL
solubility at 0 h (CBS 30 mM pH 4.0, NaCl 3 mg/mL, SBE-beta-CD 40 mg/mL + Soybean lecithin 10 mg/mL, pH exp 4.1): 2520 µg/mL
solubility at 24 h (CBS 30 mM pH 4.0, NaCl 3 mg/mL, SBE-beta-CD 40 mg/mL + Soybean lecithin 10 mg/mL, pH exp 4.3): 3600 µg/mL
solubility at 0 h (CBS 30 mM pH 4.0, NaCl 3 mg/mL, SBE-beta-CD 40 mg/mL + Tween 80 5 mg/mL, pH exp 4.1): 2950 µg/mL
solubility at 24 h (CBS 30 mM pH 4.0, NaCl 3 mg/mL, SBE-beta-CD 40 mg/mL + Tween 80 5 mg/mL, pH exp 4.2): 4040 µg/mL
solubility at 0 h (CBS 30 mM pH 4.0, NaCl 6 mg/mL, SBE-beta-CD 40 mg/mL + Kollidon 12 PF 2.5 mg/mL, pH exp 4.1): 2370 µg/mL
solubility at 24 h (CBS 30 mM pH 4.0, NaCl 6 mg/mL, SBE-beta-CD 40 mg/mL + Kollidon 12 PF 2.5 mg/mL, pH exp 4.3): 3690 µg/mL
solubility at 0 h (CBS 30 mM pH 4.0, NaCl 6 mg/mL, SBE-beta-CD 40 mg/mL + Kollidon 12 PF 5 mg/mL, pH exp 4.0): 2510 µg/mL
solubility at 24 h (CBS 30 mM pH 4.0, NaCl 6 mg/mL, SBE-beta-CD 40 mg/mL + Kollidon 12 PF 5 mg/mL, pH exp 4.2): 3750 µg/mL
solubility at 0 h (CBS 30 mM pH 4.0, NaCl 6 mg/mL, SBE-beta-CD 40 mg/mL + Kollidon 12 PF 10 mg/mL, pH exp 4.1): 2520 µg/mL
solubility at 24 h (CBS 30 mM pH 4.0, NaCl 6 mg/mL, SBE-beta-CD 40 mg/mL + Kollidon 12 PF 10 mg/mL, pH exp 4.2): 3700 µg/mL
solubility at 0 h (CBS 30 mM pH 4.0, NaCl 6 mg/mL, SBE-beta-CD 40 mg/mL + Propylene glycol 5 mg/mL, pH exp 4.1): 2360 µg/mL
SMILES: COc1cc(N2CCNCC2)ccc1Nc1ncc2c(n1)-n1ccc(C(=O)Nc3c(C)cccc3C)c1CC2 [compound of formula (I)]
